Data from patent US20230277486A1, “COMPOSITIONS FOR THE TREATMENT OF NON-ARTICULAR CARTILAGE-[…] CONDITIONS” (priority 2019, published 2023).

Assays:
Assay type in all cases: cell-based
[1] = tested on: Primary human osteoblasts; assay: Calcium deposition in osteoblast cultures, Alizarin red stain; conditions: PCA 1 μM to 100 μM, 12 days of culture
Description: (§1) Cells: Primary human osteoblasts were obtained from Cell Applications, San Diego, Calif.
(§2) Cell culture: Osteoblasts were expanded in culture using the protocol provided by Cell Applications. Human Osteoblast Basal Media was supplemented with Human Osteoblast Growth Supplement (Cell Applications) containing 0.15 g/L calcium. Human Osteoblast Differentiation Media was purchased from Cell Applications, containing 0.20 g/L calcium.
(§3) Treatment: Osteoblasts were cultured in Human Osteoblast Basal Media and exposed to Protocatechuic acid (PCA) for up to 12 days at concentrations ranging from 1 μmolar to 100 μM. Osteoblasts were cultured without any PCA as negative control. Osteoblasts were cultured without any PCA in osteogenic media (Human Osteoblast Differentiation Media) as positive control (osteogenic media induces osteogenesis in osteoblasts). Each experiment was conducted in triplicate. Media were changed every 3 days.
Calcium deposition: Osteoblast cultures were tested for calcium deposition using Alizarin red stain.

[2] = tested on: Primary human mesenchymal stem cells (MSC); assay: qPCR osteogenic gene expression in MSC cultures exposed to PCA; conditions: three cell lines, PCA 200 μM to 2000 μM, 14 or 21 days
Description: (§4) Cells: Primary human mesenchymal stem cells (MSC) were obtained from RoosterBio Inc., Frederick, Md.; ATCC, Manassas, Va.; and Cell Applications, San Diego, Calif.
(§5) Cell culture: MSC were expanded in culture, using the protocol provided by the respective suppliers, before being subjected to the experimental conditions.
(§6) Treatment: MSC were cultured in supplier-provided culture media and exposed to Protocatechuic acid (PCA) for 14 or 21 days at concentrations ranging from 200 μM to 2000 μM (2 mM). MSC were cultured without any PCA as negative control. To serve as positive control, MSC were cultured without any PCA in osteogenic media (Human Osteoblast Differentiation Media, Cell Applications, Catalog number: 417D-250). Osteogenic media is commonly used to induce osteogenesis. Each experiment was conducted in triplicate. Media was changed twice a week.
Gene expression: Osteogenic gene expression was measured using qPCR on mRNA extracted from MSC cultures. Gene expression was computed as fold-change relative to the control group (MSC cultured without any PCA). MSC cultured in osteogenic media was used as positive control as this protocol is commonly used to induce osteogenesis.

[3] = tested on: Primary human osteoblasts; assay: qPCR gene expression in osteoblast cultures exposed to PCA
Description: as §1, §2, §3
Gene expression: Pro-osteogenic and anti-osteogenic gene expression was measured using qPCR on mRNA extracted from osteoblast cultures. Gene expression was computed as fold-change relative to control group (osteoblasts cultured without any PCA).

[4] = tested on: Primary human mesenchymal stem cells (MSC); assay: Calcium deposition in MSC cultures, Alizarin red stain at 21 days; conditions: three cell lines, PCA 200 μM to 2000 μM, FIG. 8
Description: as §4, §5, §6
Calcium deposition: MSC cultures were tested for calcium deposition using Alizarin red stain at 21 days.

With `O=C(O)c1ccc(O)c(O)c1` [PCA, protocatechuic acid] the calcium deposition [1] was “did not increase deposition of calcium by detectable amounts”, the RUNX2 expression ([2]; FIG. 5) was “increased RUNX2 at most dose levels” and the “RUNX2 expression versus positive control (osteogenic media)” value ([2]; FIG. 5) was “mostly higher than the positive control”. For the same compound, the “expression of alkaline phosphatase (TNAP)” value ([2]; FIG. 6) was “increased the expression of alkaline phosphatase relative to negative control but not greater than the osteogenic conditions”, the “expression of bone sialoprotein (IBSP)” value ([2]; FIG. 7) was “did not increase” and the “expression of osteopontin (SPP1)” value ([2]; versus positive control (osteogenic media), FIG. 4) was “even higher than that measured in the positive control”. For the same compound, the “IL-1β gene expression (anti-osteogenic gene)” value ([3]; PCA 1 μM to 100 μM, FIG. 2) was “increasing”, the “IL-6 gene expression (anti-osteogenic gene)” value ([3]; PCA 1 μM to 100 μM, FIG. 2) was “increasing” and the “MMP-1 gene expression (anti-osteogenic gene)” value ([3]; PCA 1 μM to 100 μM, FIG. 2) was “suppressing”. The “TNF-α gene expression (anti-osteogenic gene)” value ([3]; PCA 1 μM to 100 μM, FIG. 2) was “suppressing”, the “BMP-6 expression, dose dependence” value ([3]; PCA 1 μM to 100 μM, FIG. 3) was “dose-dependent effect” and the “osteogenic gene expression (IBSP, SPP1, TNAP, RunX2)” value ([3]; PCA 1 μM to 100 μM, up to 12 days, fold-change relative to control without PCA, FIG. 1) was “dose-dependent effect on all osteogenic genes tested”. The “expression of osteogenic genes versus positive control (osteogenic media)” value ([3]; PCA 100 μmolar (highest dose)) was “even higher than that measured in the positive control”, the “BMP-6 expression relative to negative control” value ([3]; PCA 100 μmolar, FIG. 3) was “greater than 2 fold” and the deposition of calcium [4] was “visibly increased the deposition of calcium in one of the three cell lines”.
